PMC7377239, “Cardiovascular Effects of Polychlorinated Biphenyls and Their Major Metabolites” (Environmental Health Perspectives, 2020)
Like-named read-outs stand apart in the source and are kept apart here.

Test system: iCell cardiomyocytes (human iPSC-derived cardiomyocytes)
Experiment: High-content imaging of cytotoxicity and mitochondrial integrity in iPSC-CMs
Format: cell-based
Settings: Homo sapiens; for viability at 0.01 µM / activity at 0.01 µM / viability at 0.1 µM / activity at 0.1 µM / viability at 1 µM / activity at 1 µM / viability at 10 µM / activity at 10 µM / viability at 100 µM / activity at 100 µM: Cardiomyocyte, 0.00 µM = 100.00; for viability at 0.1 µM / activity at 0.1 µM: 0.10 µM; for minimal effective concentration: iPSC-CM
How it was run: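 This assay measured cytotoxicity and mitochondrial integrity in iPSC cardiomyocytes held in 40μL maintenance medium. After compound exposure, a 2× staining solution with Hoechst 33342 (4μg/mL) and MitoTracker™ Orange (0.4μM) was applied for 15 min at 37°C. Cells were washed, fixed with 3.7% formaldehyde, imaged on DAPI and Cy3 channels, and scored in MetaXpress®.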

Oc1cccc(-c2ccc(Cl)cc2)c1 [3'-OH PCB3]
viability at 0.01 µM (1.5 h, read-out: cm.cam.90min): 101% | activity at 0.01 µM (1.5 h, read-out: cm.mii.90min): 109% | activity at 0.01 µM (1.5 h, read-out: cm.mito.90min): 101% | viability at 0.01 µM (1.5 h, read-out: cm.tc.90min): 101% | viability at 0.1 µM (1.5 h, read-out: cm.cam.90min): 96.5% | activity at 0.1 µM (1.5 h, read-out: cm.mii.90min): 107% | activity at 0.1 µM (1.5 h, read-out: cm.mito.90min): 96.4% | viability at 0.1 µM (1.5 h, read-out: cm.tc.90min): 96.6% | viability at 1 µM (1.5 h, read-out: cm.cam.90min): 103% | activity at 1 µM (1.5 h, read-out: cm.mii.90min): 98.4% | activity at 1 µM (1.5 h, read-out: cm.mito.90min): 103% | viability at 1 µM (1.5 h, read-out: cm.tc.90min): 103% | viability at 10 µM (1.5 h, read-out: cm.cam.90min): 99.4% | activity at 10 µM (1.5 h, read-out: cm.mii.90min): 106% | activity at 10 µM (1.5 h, read-out: cm.mito.90min): 99.2% | viability at 10 µM (1.5 h, read-out: cm.tc.90min): 99.2% | viability at 100 µM (1.5 h, read-out: cm.cam.90min): 0% | activity at 100 µM (1.5 h, read-out: cm.mii.90min): 0% | activity at 100 µM (1.5 h, read-out: cm.mito.90min): 0% | viability at 100 µM (1.5 h, read-out: cm.tc.90min): 0% | viability at 0.01 µM (24 h, read-out: cm.cam.24hrs): 91.7% | activity at 0.01 µM (24 h, read-out: cm.mii.24hrs): 99.6% | activity at 0.01 µM (24 h, read-out: cm.mito.24hrs): 88.3% | viability at 0.01 µM (24 h, read-out: cm.tc.24hrs): 91.6% | viability at 0.1 µM (24 h, read-out: cm.cam.24hrs): 99.1% | activity at 0.1 µM (24 h, read-out: cm.mii.24hrs): 109% | activity at 0.1 µM (24 h, read-out: cm.mito.24hrs): 97.5% | viability at 0.1 µM (24 h, read-out: cm.tc.24hrs): 98.9% | viability at 1 µM (24 h, read-out: cm.cam.24hrs): 104% | activity at 1 µM (24 h, read-out: cm.mii.24hrs): 92.4% | activity at 1 µM (24 h, read-out: cm.mito.24hrs): 101% | viability at 1 µM (24 h, read-out: cm.tc.24hrs): 104% | viability at 10 µM (24 h, read-out: cm.cam.24hrs): 98% | activity at 10 µM (24 h, read-out: cm.mii.24hrs): 98.8% | activity at 10 µM (24 h, read-out: cm.mito.24hrs): 97.5% | viability at 10 µM (24 h, read-out: cm.tc.24hrs): 98.6% | viability at 100 µM (24 h, read-out: cm.cam.24hrs): 0.0471% | activity at 100 µM (24 h, read-out: cm.mii.24hrs): 0% | activity at 100 µM (24 h, read-out: cm.mito.24hrs): 0% | viability at 100 µM (24 h, read-out: cm.tc.24hrs): 0.09% | minimal effective concentration (1.5 h, read-out: cm.cam.90min POD): 16 µM | minimal effective concentration (1.5 h, read-out: cm.mii.90min POD): 35 µM | minimal effective concentration (1.5 h, read-out: cm.mito.90min POD): 15 µM | minimal effective concentration (1.5 h, read-out: cm.tc.90min POD): 14.8 µM | minimal effective concentration (24 h, read-out: cm.cam.24hrs POD): 14.1 µM | minimal effective concentration (24 h, read-out: cm.mii.24hrs POD): 23 µM | minimal effective concentration (24 h, read-out: cm.mito.24hrs POD): 14 µM | minimal effective concentration (24 h, read-out: cm.tc.24hrs POD): 15.6 µM
